This assay has as its target human NAMPT (Homo sapiens (Human), UniProt P43490). The assay is described as follows: NMN fluorescence biochemical assay (human recombinant NAMPT enzyme assay). The protocol:
Compounds described herein were assayed for their ability to stimulate the synthesis of nicotinamide mononucleotide (NMN) by the enzyme NAMPT. The human recombinant enzyme assay measures the activation of the enzyme activity by compounds using recombinant enzyme and substrates in a buffered cell-free system. The assay conditions closely mimic cellular environments. Dose responses were measured using an assay to detect the formation of nicotinamide mono-nucleotide. All experiments were performed in the 384-well format. Generally, 0.5 μL of DMSO containing varying concentrations of the test compound was mixed with 10 μL of the enzyme reagent solution. Enzyme reactions were initiated with the addition of […] containing the substrates. The final assay conditions were as follows: 6 nM human NAMPT, 2.5 mM ATP, 20 μM PRPP and 150 μM nicotinamide in 50 mM HEPES, pH 7.2, 1 mM DTT, 1 mM CHAPS 50 mM NaCl, 100 mM MgCl2. Following an incubation of 60 min at ambient temperature, 10 μL of 20% acetophenone in DMSO was added, followed by 10 μL of 2 M KOH and 40 μL of formic acid. The plates were read for fluorescence (Excitation/Emission=355 nm/460 nm) using an EnVision plate reader after 40 mins of incubation at ambient temperature.

Structures are written as SMILES.

Sequence of human NAMPT (P43490 whole entry): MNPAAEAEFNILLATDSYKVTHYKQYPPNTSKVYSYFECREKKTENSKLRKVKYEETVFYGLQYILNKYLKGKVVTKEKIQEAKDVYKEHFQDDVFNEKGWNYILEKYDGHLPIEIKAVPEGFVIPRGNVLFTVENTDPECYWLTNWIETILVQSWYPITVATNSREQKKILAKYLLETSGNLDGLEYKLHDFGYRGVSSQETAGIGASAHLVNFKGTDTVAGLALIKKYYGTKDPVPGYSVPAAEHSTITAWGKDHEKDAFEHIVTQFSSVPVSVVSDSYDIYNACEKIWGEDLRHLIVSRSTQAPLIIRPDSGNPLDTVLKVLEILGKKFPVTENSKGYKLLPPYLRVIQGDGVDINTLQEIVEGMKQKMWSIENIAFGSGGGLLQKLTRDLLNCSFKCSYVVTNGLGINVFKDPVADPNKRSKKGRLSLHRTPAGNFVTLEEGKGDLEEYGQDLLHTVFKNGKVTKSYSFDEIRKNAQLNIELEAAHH

In general, EC50 refers to the concentration that produces a half-maximal response. In the case of `CC(=O)N1CCC(CCc2ccc(NC(=O)OCc3cnco3)cc2)CC1` [Compound 26, oxazol-5-ylmethyl (4-(2-(1-acetylpiperidin-4-yl)ethyl)phenyl)carbamate], the “AC1.4 Human” value stood at 0.35 µM and the EC50 came to 27.5 µM.

Turning to `O=C(Nc1ccc(CC2CCN(C(=O)C3CC(F)(F)C3)CC2)cc1)OCc1cnco1` [Compound 470, oxazol-5-ylmethyl (4-((1-(3,3-difluorocyclobutane-1-carbonyl)piperidin-4-yl)methyl)phenyl)carbamate], the “AC1.4 Human” value came to 0.98 µM and the half-maximal effective concentration (EC50) came to 37.5 µM.

Take `CC(=O)N1CC2(CC(Cc3ccc(NC(=O)OCc4cnco4)cc3F)C2)C1` [Compound 472, oxazol-5-ylmethyl (4-((2-acetyl-2-azaspiro[3.3]heptan-6-yl)methyl)-3-fluorophenyl)carbamate]: the “AC1.4 Human” value is 0.11 µM and the EC50 was 5.63 µM.

For the molecule `Cc1cnn(C)c1C(=O)NCc1ccc(NC(=O)OCc2ccc(Cl)cc2)cc1` [Compound 45, (4-chlorophenyl)methyl N-(4-{[(2,4-dimethylpyrazol-3-yl)formamido]methyl}phenyl)carbamate], the “AC1.4 Human” value was determined as 0.46 µM and the EC50 turned out to be 1.88 µM.

Regarding `CN1CCN(C(=O)Cc2ccc(NC(=O)OCc3ccc(Cl)cc3)cc2)C2CC21` (stereo not drawn) [Compound 178, 4-chlorobenzyl (4-(2-(5-methyl-2,5-diazabicyclo[4.1.0]heptan-2-yl)-2-oxoethyl)phenyl)carbamate], the “AC1.4 Human” value was determined as 1.50 µM and the EC50 worked out at 14.7 µM.

As for `O=C(Nc1ccc(CC(=O)N2CCC[C@@H](O)C2)cc1)OCc1ccc(Cl)cc1` [Compound 237, (4-chlorophenyl)methyl N-(4-{2-[(3R)-3-hydroxypiperidin-1-yl]-2-oxoethyl}phenyl)carbamate], the “AC1.4 Human” value was 2.25 µM and the EC50 was 32.3 µM.

Take `O=C1CN(C2CCC2)[C@@H](c2ccc(NC(=O)OCc3ccc(Cl)cc3)cc2)CN1` [Compound 236, 4-chlorobenzyl (S)-(4-(1-cyclobutyl-5-oxopiperazin-2-yl)phenyl)carbamate]: the “AC1.4 Human” value was found to be 2.25 µM and the EC50 was determined as 50.6 µM.

With `C[C@H](NC(=O)C1COC1)c1ccc(NC(=O)OCc2ccc(Cl)cc2)cc1` [Compound 122, 4-chlorobenzyl (S)-(4-(1-(oxetane-3-carboxamido)ethyl)phenyl)carbamate], the “AC1.4 Human” value was 0.97 µM and the EC50 came to 6.46 µM.

For the molecule `CN(C)S(=O)(=O)N1CC2(CC(c3ccc(NC(=O)OCc4cnco4)cc3F)C2)C1` [Compound 387, oxazol-5-ylmethyl (4-(2-(N,N-dimethylsulfamoyl)-2-azaspiro[3.3]heptan-6-yl)-3-fluorophenyl)carbamate], the “AC1.4 Human” value amounted to 0.08 µM and the EC50 amounted to 2.76 µM.

Consider `CNS(=O)(=O)N1CCC(Cc2ccc(NC(=O)OCc3cnco3)cc2)CC1` [Compound 10, oxazol-5-ylmethyl (4-((1-(N-methylsulfamoyl)piperidin-4-yl)methyl)phenyl)carbamate], for which the “AC1.4 Human” value is 0.16 µM and the EC50 came out at 11.2 µM.

With `CC(C)C(=O)N1CC2CCC(C1)C2Cc1ccc(NC(=O)OCc2cnco2)cc1` (stereo not drawn) [Compound 423, oxazol-5-ylmethyl (4-((3-isobutyryl-3-azabicyclo[3.2.1]octan-8-yl)methyl)phenyl)carbamate], the “AC1.4 Human” value worked out at 0.18 µM and the EC50 is 15.4 µM.

With `C[C@H](NC(=O)c1ccnn1C1CCOCC1)c1ccc(NC(=O)OCc2ccc(Cl)cc2)cc1` [Compound 20, (4-chlorophenyl)methyl N-{4-[(1S)-1-{[2-(oxan-4-yl)pyrazol-3-yl]formamido}ethyl]phenyl}carbamate], the “AC1.4 Human” value was 0.29 µM and the EC50 amounted to 2.57 µM.

Consider `NC(=O)c1ccc(COC(=O)Nc2ccc(CN3CCC[C@@H]3c3cccnc3)cc2)cc1` [Compound 2, (4-carbamoylphenyl)methyl N-(4-{[(2R)-2-(pyridin-3-yl)pyrrolidin-1-yl]methyl}phenyl)carbamate], for which the “AC1.4 Human” value amounted to 0.05 µM and the EC50 stood at 0.96 µM.

Take `Cc1nnc(Cc2ccc(NC(=O)OCc3ccc(Cl)cc3)cc2)o1` [Compound 322, (4-chlorophenyl)methyl N-{4-[(5-methyl-1,3,4-oxadiazol-2-yl)methyl]phenyl}carbamate]: the “AC1.4 Human” value was determined as 7.23 µM and the EC50 came out at 39.3 µM.

Take `Cc1nocc1C(=O)NCc1ccc(NC(=O)OCc2ccc(Cl)cc2)cc1` [Compound 251, (4-chlorophenyl)methyl N-(4-{[(3-methyl-1,2-oxazol-4-yl)formamido]methyl}phenyl)carbamate]: the “AC1.4 Human” value was 2.59 µM and the EC50 was 11 µM.

In the case of `COCCN1CCC(Cc2ccc(NC(=O)OCc3cnco3)cc2)CC1` [Compound 293, oxazol-5-ylmethyl (4-((1-(2-methoxyethyl)piperidin-4-yl)methyl)phenyl)carbamate], the “AC1.4 Human” value worked out at 4.16 µM and the EC50 is 18.4 µM.

Consider `O=C(Nc1ccc(Cc2ccncc2)cc1)OCc1ccc(CO)cc1` [Compound 106, 4-(hydroxymethyl)benzyl (4-(pyridin-4-ylmethyl)phenyl)carbamate], for which the “AC1.4 Human” value was 0.86 µM and the EC50 worked out at 26.4 µM.

Turning to `CC(=O)N1CCC[C@@H](c2ccc(NC(=O)OCc3cnco3)cc2)C1` [Compound 381, oxazol-5-ylmethyl (S)-(4-(1-acetylpiperidin-3-yl)phenyl)carbamate], the “AC1.4 Human” value worked out at 3.37 µM and the EC50 came to 17 µM.

Turning to `O=C(Nc1ccc(CCN2CCN(C3COC3)CC2)cc1)OCc1cnco1` [Compound 269, 1,3-oxazol-5-ylmethyl N-(4-{2-[4-(oxetan-3-yl)piperazin-1-yl]ethyl}phenyl)carbamate], the “AC1.4 Human” value is 3.13 µM and the EC50 is 44.1 µM.

With `C[C@H](NC(=O)c1ccc(C(F)F)nc1)c1ccc(NC(=O)OCc2ccc(Cl)cc2)cc1` [Compound 164, (4-chlorophenyl)methyl N-{4-[(1S)-1-{[6-(difluoromethyl)pyridin-3-yl]formamido}ethyl]phenyl}carbamate], the “AC1.4 Human” value came to 1.38 µM and the EC50 turned out to be 1.6 µM.

On to `Cc1ccc(C(=O)N[C@@H](C)c2ccc(NC(=O)OCc3ccc(Cl)cc3)cc2)cn1` [Compound 60, 4-chlorobenzyl (S)-(4-(1-(6-methylnicotinamido)ethyl)phenyl)carbamate], for which the “AC1.4 Human” value was 0.57 µM and the EC50 came out at 1.91 µM.

On to `COCCN1CCC(c2ccc(NC(=O)OCc3cnco3)cc2)CC1` [Compound 348, 1,3-oxazol-5-ylmethyl N-{4-[1-(2-methoxyethyl)piperidin-4-yl]phenyl}carbamate], for which the “AC1.4 Human” value was determined as 14.47 µM and the EC50 was 35.9 µM.

Regarding `CCS(=O)(=O)N1CC2(CC(Cc3ccc(NC(=O)OCc4cnco4)cc3F)C2)C1` [Compound 386, oxazol-5-ylmethyl (4-((2-(ethylsulfonyl)-2-azaspiro[3.3]heptan-6-yl)methyl)-3-fluorophenyl)carbamate], the “AC1.4 Human” value turned out to be 0.14 µM and the EC50 turned out to be 14.1 µM.

Consider `Cc1ncoc1C(=O)N[C@@H](C)c1ccc(NC(=O)OCc2ccc(Cl)cc2)cc1` [Compound 152, (4-chlorophenyl)methyl N-{4-[(1S)-1-[(4-methyl-1,3-oxazol-5-yl)formamido]ethyl]phenyl}carbamate], for which the “AC1.4 Human” value was determined as 1.27 µM and the EC50 stood at 10.6 µM.

As for `O=C(Nc1ccc(CC2CCN(S(=O)(=O)C3CC3)CC2)cc1)OCc1cnco1` [Compound 460, oxazol-5-ylmethyl (4-((1-(cyclopropylsulfonyl)piperidin-4-yl)methyl)phenyl)carbamate], the “AC1.4 Human” value turned out to be 0.24 µM and the EC50 is 12.2 µM.

In the case of `COc1cc(C(=O)NCc2ccc(NC(=O)OCc3ccc(Cl)cc3)cc2)cnc1C` [Compound 195, (4-chlorophenyl)methyl N-(4-{[(5-methoxy-6-methylpyridin-3-yl)formamido]methyl}phenyl)carbamate], the “AC1.4 Human” value was 1.73 µM and the EC50 turned out to be 8.13 µM.

As to `CN(Cc1ccc(NC(=O)OCc2ccc(Cl)cc2)cc1)C(=O)c1ccn[nH]1` [Compound 91, (4-chlorophenyl)methyl N-{4-[(N-methyl-1-2H-pyrazol-3-ylformamido)methyl]phenyl}carbamate], the “AC1.4 Human” value was 0.74 µM and the EC50 came to 3.8 µM.

As for `O=C(Nc1ccc(CNC(=O)N2CCC2)cc1)OCc1ccc(Cl)cc1` [Compound 265, (4-chlorophenyl)methyl N-{4-[(azetidine-1-carbonylamino)methyl]phenyl}carbamate], the “AC1.4 Human” value came out at 2.94 µM and the EC50 stood at 23.2 µM.

Turning to `CC(=O)N1CCC(Cc2ccc(NC(=O)OCc3cnco3)cc2)CC1` [Compound 31, oxazol-5-ylmethyl (4-((1-acetylpiperidin-4-yl)methyl)phenyl)carbamate], the “AC1.4 Human” value was 0.37 µM and the EC50 came to 21.7 µM.

Regarding `O=C(Nc1ccc(CC2CCN(C(=O)C3COC3)CC2)cc1)OCc1cnco1` [Compound 48, oxazol-5-ylmethyl (4-((1-(oxetane-3-carbonyl)piperidin-4-yl)methyl)phenyl)carbamate], the “AC1.4 Human” value was 0.49 µM and the EC50 came to 31 µM.
